Structures can show the parent of a compound that is named as a salt.
What was measured:
[1] = biological target: T1, α-1 Adrenoceptors (Rat Aorta) (Rattus norvegicus, UniProt P23944); test: Functional antagonism at α-1 adrenoceptors, rat aorta; type: cell-based; settings: read-out: In Vitro Characterization (pA2) Rat Aorta (converted)
T1 construct: Rat Aorta; from tissue; host or cells: rat aorta
T1 sequence (P23944 1-561): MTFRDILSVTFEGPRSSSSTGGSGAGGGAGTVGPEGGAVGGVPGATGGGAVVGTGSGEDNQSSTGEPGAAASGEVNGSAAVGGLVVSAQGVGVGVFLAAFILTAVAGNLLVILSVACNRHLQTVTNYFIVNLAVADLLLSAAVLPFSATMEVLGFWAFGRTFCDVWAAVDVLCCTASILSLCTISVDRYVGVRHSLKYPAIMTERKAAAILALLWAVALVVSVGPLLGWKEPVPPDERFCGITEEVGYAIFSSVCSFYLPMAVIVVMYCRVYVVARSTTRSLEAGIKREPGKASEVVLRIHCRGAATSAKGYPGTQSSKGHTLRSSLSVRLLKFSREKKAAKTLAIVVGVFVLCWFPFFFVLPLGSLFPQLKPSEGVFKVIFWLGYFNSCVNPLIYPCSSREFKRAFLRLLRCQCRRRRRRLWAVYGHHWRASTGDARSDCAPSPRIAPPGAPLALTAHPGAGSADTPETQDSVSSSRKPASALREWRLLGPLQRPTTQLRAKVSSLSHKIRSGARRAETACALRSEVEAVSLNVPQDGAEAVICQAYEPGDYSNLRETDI
In short: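 Phenylephrine dose-response curves for contraction were repeated against increasing test-agent concentrations. pA2 was derived by Schild plot [[…] vs log molarity of test agent].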

[2] = biological target: T2, α-1A adrenoreceptor (rat vas deferens) (Rattus norvegicus, UniProt P43140); test: Functional antagonism: inhibition of phenylephrine-induced contraction of rat vas deferens; type: cell-based; settings: rat vas deferens, phenylephrine-induced contraction, Schild plot
T2 construct: from tissue; host or cells: rat vas deferens
T2 sequence (P43140 1-466): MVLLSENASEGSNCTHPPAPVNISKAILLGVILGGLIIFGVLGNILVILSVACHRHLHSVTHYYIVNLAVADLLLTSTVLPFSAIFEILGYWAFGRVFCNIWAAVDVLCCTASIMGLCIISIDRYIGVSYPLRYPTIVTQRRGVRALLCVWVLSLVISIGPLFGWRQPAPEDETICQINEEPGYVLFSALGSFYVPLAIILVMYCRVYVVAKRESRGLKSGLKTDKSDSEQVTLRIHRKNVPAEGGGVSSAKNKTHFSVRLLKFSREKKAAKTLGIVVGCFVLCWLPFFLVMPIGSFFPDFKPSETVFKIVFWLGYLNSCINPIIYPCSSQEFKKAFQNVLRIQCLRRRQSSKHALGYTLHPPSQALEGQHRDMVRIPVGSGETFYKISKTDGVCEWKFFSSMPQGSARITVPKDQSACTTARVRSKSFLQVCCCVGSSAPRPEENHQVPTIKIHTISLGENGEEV
Source text: (§1) Functional assays indicative of pharmacologically defined α-1 adrenoreceptors were used to further characterize compounds. Inhibition of phenylephrine (PE)-induced contraction of canine prostate smooth muscle can be correlated with α-1A adrenoreceptor activation. […] For each of these models, agonist dose response curves were repeated against increasing concentrations of test agent to derive a Schild plot [log ([…]) against log (molarity of test agent)] to determine the pA2.

[3] = biological target: T3, α-1B adrenoreceptor (rat spleen) (Rattus norvegicus, UniProt P15823); test: Functional antagonism: inhibition of phenylephrine-induced contraction of rat spleen; type: cell-based; settings: rat spleen, phenylephrine-induced contraction, Schild plot
T3 construct: from tissue; host or cells: rat spleen
T3 sequence (P15823 1-515): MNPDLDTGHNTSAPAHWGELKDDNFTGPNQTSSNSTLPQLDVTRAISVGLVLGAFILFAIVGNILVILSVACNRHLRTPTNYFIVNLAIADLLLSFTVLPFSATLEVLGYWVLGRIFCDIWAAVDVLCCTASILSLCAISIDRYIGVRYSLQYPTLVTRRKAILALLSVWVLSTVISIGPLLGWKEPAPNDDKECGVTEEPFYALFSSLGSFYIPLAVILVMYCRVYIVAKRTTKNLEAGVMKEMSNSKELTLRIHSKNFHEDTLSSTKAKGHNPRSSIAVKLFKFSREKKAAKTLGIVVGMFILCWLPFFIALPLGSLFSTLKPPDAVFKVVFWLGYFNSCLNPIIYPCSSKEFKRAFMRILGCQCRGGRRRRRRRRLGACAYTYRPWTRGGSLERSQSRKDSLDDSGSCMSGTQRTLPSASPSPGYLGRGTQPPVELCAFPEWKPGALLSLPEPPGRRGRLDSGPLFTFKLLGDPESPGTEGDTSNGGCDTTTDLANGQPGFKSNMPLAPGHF
Source text: as §1

[4] = antihypertensive treatment; cited from earlier work
α-1 adrenoreceptor = settings: cited from earlier work

Compound	Kb [1] [nM]	In Vitro Characterization (pA2) Rat Vas [2]	In Vitro Characterization (pA2) Rat Spleen [3]	urinary incontinence in women [4]	dose limiting side effects (α-1 adrenoreceptor; BPH treatment)	urinary flow rates and subjective symptom scores (α-1 adrenoreceptor; longer term studies, BPH)
COc1ccc2sc3c(=O)n(CCCCN4C[C@@H]5COc6cccc(OC)c6[C@@H]5C4)c(=O)[nH]c3c2n1 [Example 30, 3-[4-((3aR,9bR)-cis-9-Methoxy-1,2,3,3a,4,9b-hexahydro-[1]-benzopyrano[3,4-c]pyrrol-2-yl)butyl]-8-methoxy-pyrido[2',3':4,5]thieno[3,2-d]pyrimidine-2,4(1H,3H)-dione hydrochloride]	0.468	9.6	–	–	–	–
COc1cccc2c1[C@@H]1CN(CCCCn3c(=O)[nH]c4c(sc5c(Cl)nccc54)c3=O)C[C@@H]1CO2 [Example 53, 3-[4-((3aR,9bR)-cis-9-Methoxy-1,2,3,3a,4,9b-hexahydro-[1]-benzopyrano[3,4-c]pyrrol-2-yl)butyl]-6-chloro-pyrido[4',3':4,5]thieno[3,2-d]pyrimidine-2,4(1H,3H)-dione]	1.07	9.31	7.2	–	–	–
COc1cc2nc(N3CCN(C(=O)c4ccco4)CC3)nc(N)c2cc1OC [Prazosin, prazosin]	–	–	–	urinary incontinence developed in women	hypotension, dizziness, and muscle fatigue	significant improvements in urinary flow rates and subjective symptom scores
COc1cccc2c1[C@@H]1CN(CCCCn3c(=O)[nH]c4c(sc5ccncc54)c3=O)C[C@H]1CO2 [Example 41, 3-[4-((3aR,9bR)-trans-9-Methoxy-1,2,3,3a,4,9b-hexahydro-[1]-benzopyrano[3,4-c]pyrrol-2-yl)butyl]-pyrido[3',4':4,5]thieno[3,2-d]pyrimidine-2,4(1H,3H)-dione hydrochloride]	0.017	9.45	–	–	–	–
COc1cccc2c1[C@@H]1CN(CCCCn3c(=O)[nH]c4c(sc5cnccc54)c3=O)C[C@H]1CO2 [Example 42, hydrochloride]	0.0389	9.59	–	–	–	–
